Data as given in US20250115620A1, “BRIDGED TRICYCLIC CARBAMOYLPYRIDONE COMPOUNDS AND USES THEREOF” (Gilead Sciences, Inc., priority 2022, published 2025).
Where two headings read alike, the source gives them in different places.

Assays:
[1] = tested on: HIV-1 (IIIB); assay: microbe, parasite or virus in culture; format: cell-based; conditions: Human immunodeficiency virus 1, IIIB, MT4, 120 h, read-out: MT4 EC50
[2] = tested on: pLAI reporter virus; assay: microbe, parasite or virus in culture; format: cell-based, HIV; conditions: Human immunodeficiency virus 1, MT4, 72 h
[3] = in vitro; conditions: human, uninfected MT-4 cells
[4] = HIV-1 (IIIB) in MT-4 cells, 5 days incubation, Cell Titer Glo

Row | Structure (SMILES) | EC50 [1, 4] [nM] | EC50 ([2]; read-out: RLUC 50% HS EC50) [nM] | EC50 ([2]; read-out: RLUC CCM EC50) [nM] | CC50 at 5 days [3] [nM] | EC50 [1] [nM]
1 | C[C@H]1CC[C@]2(COCO2)[C@H]2CN1C(=O)c1c(O)c(=O)c(C(=O)NCc3c(F)cc(F)cc3F)cn12 [Example 130, (3′S,4R,7′R)-12′-hydroxy-3′-methyl-1′,11′-dioxo-N-(2,4,6-trifluorobenzyl)-1′,4′,5′,11′-tetrahydro-3′H,7′H-spiro[[1,3]dioxolane-4,6′-[2,7]methanopyrido[1,2-a][1,4]diazonine]-10′-carboxamide] | 0.9 | 363 | 0.2 | 9840 | –
2 | C[C@H]1CC[C@@]2(COCO2)[C@H]2CN1C(=O)c1c(O)c(=O)c(C(=O)NCc3c(F)cc(F)cc3F)cn12 [Example 131, (3′S,4S,7′R)-12′-hydroxy-3′-methyl-1′,11′-dioxo-N-(2,4,6-trifluorobenzyl)-1′,4′,5′,11′-tetrahydro-3′H,7′H-spiro[[1,3]dioxolane-4,6′-[2,7]methanopyrido[1,2-a][1,4]diazonine]-10′-carboxamide] | 1.9 | 8.1 | 0.5 | 28900 | –
3 | C[C@@H]1OC[C@]2(CC[C@H](C)N3C[C@H]2n2cc(C(=O)NCc4c(F)cc(F)cc4F)c(=O)c(O)c2C3=O)O1 [Example 133, (2R,3′S,4R,7′R)-12′-hydroxy-2,3′-dimethyl-1′,11′-dioxo-N-(2,4,6-trifluorobenzyl)-1′,4′,5′,11′-tetrahydro-3′H,7′H-spiro[[1,3]dioxolane-4,6′-[2,7]methanopyrido[1,2-a][1,4]diazonine]-10′-carboxamide] | 1.7 | 102 | 0.5 | 20200 | –
4 | C[C@H]1CC[C@]2(CO[C@H](Cc3ccccc3)O2)[C@H]2CN1C(=O)c1c(O)c(=O)c(C(=O)NCc3c(F)cc(F)cc3F)cn12 [Example 134, (2S,3′S,4R,7′R)-2-benzyl-12′-hydroxy-3′-methyl-1′,11′-dioxo-N-(2,4,6-trifluorobenzyl)-1′,4′,5′,11′-tetrahydro-3′H,7′H-spiro[[1,3]dioxolane-4,6′-[2,7]methanopyrido[1,2-a][1,4]diazonine]-10′-carboxamide] | – | 6.3 | 1.9 | 8500 | 4.8
5 | C[C@H]1CC[C@]2(COC(Cc3ccccc3)O2)[C@H]2CN1C(=O)c1c(O)c(=O)c(C(=O)NCc3c(F)cc(F)cc3F)cn12 (stereo partly drawn) [Example 135, (2R,3′S,4R,7′R)-2-benzyl-12′-hydroxy-3′-methyl-1′,11′-dioxo-N-(2,4,6-trifuorobenzyl)-1′,4′,5′,11′-tetrahydro-3′H, 7′H-spiro(f[,3]dioxolane-4,6′-[2,7]methanopyrido[1,2-a][1,4]diazonine]-10′-carboxamide] | 7.1 | 581 | 2.6 | 6880 | –
6 | C[C@H]1CC[C@@]2(COC(Cc3ccccc3)O2)[C@H]2CN1C(=O)c1c(O)c(=O)c(C(=O)NCc3c(F)cc(F)cc3F)cn12 (stereo partly drawn) [Example 136, (3′S,4S,7′R)-2-benzyl-12′-hydroxy-3′-methyl-1′,11′-dioxo-N-(2,4,6-trifluorobenzyl)-1′,4′,5′,11′-tetrahydro-3′H,7′H-spiro[[1,3]dioxolane-4,6′-[2,7]methanopyrido[1,2-a][1,4]diazonine]-10′-carboxamide] | – | 8.7 | 1.7 | 16600 | 5.8
7 | C[C@H]1CC[C@]2(COC(C)(C)O2)[C@H]2CN1C(=O)c1c(O)c(=O)c(C(=O)NCc3c(F)cc(F)cc3F)cn12 [Example 137, (3′S,4R,7′R)-12′-hydroxy-2,2,3′-trimethyl-1′,11′-dioxo-N-(2,4,6-trifluorobenzyl)-1′,4′,5′,11′-tetrahydro-3′H,7′H-spiro[[1,3]dioxolane-4,6′-[2,7]methanopyrido[1,2-a][1,4]diazonine]-10′-carboxamide] | 1.5 | 13.3 | 0.3 | 42400 | –
8 | C[C@H]1CC[C@@]2(COC(C)(C)O2)[C@H]2CN1C(=O)c1c(O)c(=O)c(C(=O)NCc3c(F)cc(F)cc3F)cn12 [Example 138, (3′S,4S,7′R)-12′-hydroxy-2,2,3′-trimethyl-1′,11′-dioxo-N-(2,4,6-trifluorobenzyl)-1′,4′,5′,11′-tetrahydro-3′H,7′H-spiro[[1,3]dioxolane-4,6′-[2,7]methanopyrido[1,2-a][1,4]diazonine]-10′-carboxamide] | 2 | 13.1 | 0.5 | 23200 | –
9 | C[C@H]1CC[C@]2(COCCO2)[C@H]2CN1C(=O)c1c(O)c(=O)c(C(=O)NCc3c(F)cc(F)cc3F)cn12 [Example 139, (2R,3′S,7′R)-12′-hydroxy-3′-methyl-1′,11′-dioxo-N-(2,4,6-trifluorobenzyl)-1′,4′,5′,11′-tetrahydro-3′H,7′H-spiro[[1,4]dioxane-2,6′-[2,7]methanopyrido[1,2-a][1,4]diazonine]-10′-carboxamide] | 1.4 | 83.7 | 0.1 | 30900 | –
10 | C[C@H]1CC[C@@]2(COCCO2)[C@H]2CN1C(=O)c1c(O)c(=O)c(C(=O)NCc3c(F)cc(F)cc3F)cn12 [Example 140, (2S,3′S,7′R)-12′-hydroxy-3′-methyl-1′,11′-dioxo-N-(2,4,6-trifluorobenzyl)-1′,4′,5′,11′-tetrahydro-3′H,7′H-spiro[[1,4]dioxane-2,6′-[2,7]methanopyrido[1,2-a][1,4]diazonine]-10′-carboxamide] | 1.8 | 1.7 | 0.1 | 22800 | –
11 | C[C@H]1CC[C@]2(COC(F)(F)O2)[C@H]2CN1C(=O)c1c(O)c(=O)c(C(=O)NCc3c(F)cc(F)cc3F)cn12 [Example 141, (3′S,4R,7′R)-2,2-difluoro-12′-hydroxy-3′-methyl-1′,11′-dioxo-N-(2,4,6-trifluorobenzyl)-1′,4′,5′,11′-tetrahydro-3′H,7′H-spiro[[1,3]dioxolane-4,6′-[2,7]methanopyrido[1,2-a][1,4]diazonine]-10′-carboxamide] | 0.9 | 263 | 0.2 | 30400 | –
12 | C[C@H]1CCC2(N=c3ccccc3=N2)[C@H]2CN1C(=O)c1c(O)c(=O)c(C(=O)NCc3c(F)cc(F)cc3F)cn12 [Example 142, (3′S,7′R)-12′-hydroxy-3′-methyl-1′,11′-dioxo-N-(2,4,6-trifluorobenzyl)-1′,4′,5′,11′-tetrahydro-3′H,7′H-spiro[benzo[d]imidazole-2,6′-[2,7]methanopyrido[1,2-a][1,4]diazonine]-10′-carboxamide] | – | 0.7 | 0.5 | ≥ 50000 | 3.9
13 | C[C@H]1CC[C@]2(Cc3ccccc3O2)[C@H]2CN1C(=O)c1c(O)c(=O)c(C(=O)NCc3c(F)cc(F)cc3F)cn12 [Example 143, (2S,3′S,7′R)-12′-hydroxy-3′-methyl-1′,11′-dioxo-N-(2,4,6-trifluorobenzyl)-1′,4′,5′,11′-tetrahydro-3H,3′H,7′H-spiro[benzofuran-2,6′-[2,7]methanopyrido[1,2-a][1,4]diazonine]-10′-carboxamide] | 1.4 | 78.4 | 0.1 | 24400 | –
14 | C[C@H]1CC[C@@]2(Cc3ccccc3O2)[C@H]2CN1C(=O)c1c(O)c(=O)c(C(=O)NCc3c(F)cc(F)cc3F)cn12 [Example 144, (2R,3′S,7′R)-12′-hydroxy-3′-methyl-1′,11′-dioxo-N-(2,4,6-trifluorobenzyl)-1′,4′,5′,11′-tetrahydro-3H,3′H,7′H-spiro[benzofuran-2,6′-[2,7]methanopyrido[1,2-a][1,4]diazonine]-10′-carboxamide] | 1.3 | 2.3 | 0.1 | 4810 | –
15 | COC1=NS[C@]2(CC[C@H](C)N3C[C@H]2n2cc(C(=O)NCc4ccc(F)cc4F)c(=O)c(O)c2C3=O)C1 [Example 145, (3′S,5R,7′R)—N-(2,4-difluorobenzyl)-12′-hydroxy-3-methoxy-3′-methyl-1′,11′-dioxo-1′,4′,5′,11′-tetrahydro-3′H,4H,7′H-spiro[isothiazole-5,6′-[2,7]methanopyrido[1,2-a][1,4]diazonine]-10′-carboxamide] | 3.8 | 7.5 | 1.1 | ≥ 50000 | –
16 | COc1ccc(CN2C(C)=NO[C@@]23CC[C@H](C)N2C[C@H]3n3cc(C(=O)NCc4ccc(F)cc4F)c(=O)c(O)c3C2=O)cc1 [Example 147, (3′S,5R,7′R)—N-(2,4-difluorobenzyl)-12′-hydroxy-4-(4-methoxybenzyl)-3,3′-dimethyl-1′,11′-dioxo-1′,4′,5′,11′-tetrahydro-3′H,4H,7′H-spiro[[1,2,4]oxadiazole-5,6′-[2,7]methanopyrido[1,2-a][1,4]diazonine]-10′-carboxamide] | 4.1 | 12.3 | 1.3 | 7530 | –
17 | CC1=NO[C@@]2(CC[C@H](C)N3C[C@H]2n2cc(C(=O)NCc4ccc(F)cc4F)c(=O)c(O)c2C3=O)N1 [Example 148, (3′S,5R,7′R)—N-(2,4-difluorobenzyl)-12′-hydroxy-3,3′-dimethyl-1′,11′-dioxo-1′,4′,5′,11′-tetrahydro-3′H,4H,7′H-spiro[[1,2,4]oxadiazole-5,6′-[2,7]methanopyrido[1,2-a][1,4]diazonine]-10′-carboxamide] | 3.4 | 21 | 1.1 | ≥ 50000 | –
18 | CC1=NO[C@@]2(CC[C@H](C)N3C[C@H]2n2cc(C(=O)NCc4ccc(F)cc4F)c(=O)c(O)c2C3=O)N1C [Example 149a, (3′S,5R,7′R)—N-(2,4-difluorobenzyl)-12′-hydroxy-3,3′,4-trimethyl-1′,11′-dioxo-1′,4′,5′,11′-tetrahydro-3′H,4H,7′H-spiro[[1,2,4]oxadiazole-5,6′-[2,7]methanopyrido[1,2-a][1,4]diazonine]-10′-carboxamide] | 2 | 4.8 | 0.8 | ≥ 50000 | –
